Measured values from ChEMBL document CHEMBL1201862, “PubChem BioAssay data set” (2004).
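Assay format: 96-well plates, 48-hour exposure. At the GI50, growth is halved.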 The source made the active and inactive calls. Rule as the data show it: active = GI50 up to about 1.1 µM and inactive = higher.

Columns and labels:
Assay in all cases: NCI tumour cell line growth inhibition, 48 h
HT-29 = system: HT-29
MDA-MB-435 = system: MDA-MB-435
CAKI-1 = system: CAKI-1
U-251 = system: U-251
PC-3 = system: PC-3
OVCAR-4 = system: OVCAR-4
SK-OV-3 = system: SK-OV-3
HCT-116 = system: HCT-116
Malme-3M = system: Malme-3M
786-0 = system: 786-0
SNB-19 = system: SNB-19
SR = system: SR
HOP-62 = system: HOP-62
MCF7 = system: MCF7
SNB-75 = system: SNB-75
OVCAR-8 = system: OVCAR-8
MOLT-4 = system: MOLT-4
HCC 2998 = system: HCC 2998
SK-MEL-2 = system: SK-MEL-2
M14 = system: M14
T47D = system: T47D
DU-145 = system: DU-145
RPMI-8226 = system: RPMI-8226
EKVX = system: EKVX
RXF 393 = system: RXF 393
NCI-H460 = system: NCI-H460
MDA-N = system: MDA-N
CCRF-CEM = system: CCRF-CEM
OVCAR-3 = system: OVCAR-3
SK-MEL-28 = system: SK-MEL-28
NCI-H522 = system: NCI-H522
A498 = system: A498
SF-268 = system: SF-268
HOP-92 = system: HOP-92
UO-31 = system: UO-31
SF-295 = system: SF-295
KM12 = system: KM12
K562 = system: K562
NCI/ADR-RES = system: NCI/ADR-RES
HCT-15 = system: HCT-15
A549 = system: A549
SF-539 = system: SF-539
Hs-578T = system: Hs-578T
TK-10 = system: TK-10
HL-60 = system: HL-60
SW-620 = system: SW-620
SK-MEL-5 = system: SK-MEL-5
COLO 205 = system: COLO 205
UACC-62 = system: UACC-62
ACHN = system: ACHN
IGROV-1 = system: IGROV-1
OVCAR-5 = system: OVCAR-5
LOX IMVI = system: LOX IMVI
UACC-257 = system: UACC-257
NCI-H23 = system: NCI-H23
MDA-MB-231 = system: MDA-MB-231
SN12C = system: SN12C
NCI-H226 = system: NCI-H226

Measured: GI50

COc1ccc(C(=O)c2nc3ccccc3nc2N2CCN(c3ccccc3)CC2)cc1OC
inactive: HT-29 > 100 µM | MDA-MB-435 > 100 µM | CAKI-1 > 100 µM | U-251 > 100 µM | PC-3 > 100 µM | OVCAR-4 > 100 µM | SK-OV-3 > 100 µM | HCT-116 > 100 µM | Malme-3M > 100 µM | 786-0 > 100 µM | SNB-19 > 100 µM | SR > 100 µM | HOP-62 > 100 µM | MCF7 39.1 µM | SNB-75 > 100 µM | OVCAR-8 > 100 µM | MOLT-4 > 100 µM | HCC 2998 > 100 µM | SK-MEL-2 > 100 µM | M14 > 100 µM | T47D > 100 µM | DU-145 > 100 µM | RPMI-8226 > 100 µM | EKVX > 100 µM | RXF 393 > 100 µM | NCI-H460 > 100 µM | MDA-N > 100 µM | CCRF-CEM > 100 µM | OVCAR-3 > 100 µM | SK-MEL-28 > 100 µM | NCI-H522 > 100 µM | A498 > 100 µM | SF-268 > 100 µM | HOP-92 > 100 µM | UO-31 > 100 µM | SF-295 > 100 µM | KM12 > 100 µM | K562 > 100 µM | NCI/ADR-RES > 100 µM | A549 > 100 µM | SF-539 > 100 µM | Hs-578T > 100 µM | TK-10 > 100 µM | HL-60 > 100 µM | SW-620 > 100 µM | SK-MEL-5 > 100 µM | COLO 205 > 100 µM | UACC-62 > 100 µM | ACHN > 100 µM | IGROV-1 > 100 µM | OVCAR-5 > 100 µM | LOX IMVI > 100 µM | UACC-257 > 100 µM | NCI-H23 > 100 µM
> 100 µM: HCT-15

N#Cc1nc(C2CCC2)oc1N
> 100 µM: HCT-15
inactive: HT-29 > 100 µM | MDA-MB-435 > 100 µM | CAKI-1 > 100 µM | U-251 > 100 µM | PC-3 > 100 µM | OVCAR-4 > 100 µM | SK-OV-3 > 100 µM | HCT-116 > 100 µM | Malme-3M > 100 µM | 786-0 > 100 µM | SNB-19 > 100 µM | SR > 100 µM | HOP-62 > 100 µM | MCF7 > 100 µM | SNB-75 > 100 µM | OVCAR-8 > 100 µM | MOLT-4 > 100 µM | HCC 2998 > 100 µM | SK-MEL-2 > 100 µM | M14 > 100 µM | T47D > 100 µM | DU-145 > 100 µM | MDA-MB-231 > 100 µM | RPMI-8226 > 100 µM | EKVX > 100 µM | RXF 393 > 100 µM | NCI-H460 > 100 µM | SN12C > 100 µM | MDA-N > 100 µM | CCRF-CEM 22.8 µM | OVCAR-3 > 100 µM | SK-MEL-28 > 100 µM | NCI-H522 > 100 µM | A498 > 100 µM | SF-268 > 100 µM | HOP-92 > 100 µM | UO-31 > 100 µM | SF-295 > 100 µM | KM12 > 100 µM | K562 > 100 µM | NCI/ADR-RES > 100 µM | A549 > 100 µM | SF-539 > 100 µM | Hs-578T > 100 µM | TK-10 > 100 µM | NCI-H226 > 100 µM | HL-60 84.9 µM | SW-620 > 100 µM | SK-MEL-5 > 100 µM | COLO 205 > 100 µM | UACC-62 > 100 µM | ACHN > 100 µM | IGROV-1 > 100 µM | OVCAR-5 > 100 µM | LOX IMVI > 100 µM | UACC-257 > 100 µM | NCI-H23 > 100 µM
